Data reported in patent US20200188319A1, “Use Of Inhaled Nitric Oxide For The Treatment Of Pulmonary Hypertension Associated With Lung Disease” (Bellerophon Pulse Technologies LLC, priority 2017, published 2020).
“And” between values parts separate entries of the source, which are not always exact repeats. Identical values can stand only once. Like-named read-outs stand apart in the source and are kept apart here.

Key:
PH-IPF subjects [1] = assay: Chronic iNO: SpO2 during 6MWT in PH-IPF subjects; format: in vivo, human; settings: during exercise (6MWT)
Source text: The secondary endpoints of Part 2b (chronic dosing) were change in 6MWT with Borg CR10 leg fatigue and dyspnea scale and SpO2, at the beginning and end of the 6MWT and symptoms evaluated using a questionnaire with after 4 weeks use of iNO at a dose of 75 mcg/kg IBW/hr and 2 weeks post discontinuation of iNO.
The secondary endpoints of Part 3b (chronic dosing) were change in 6MWT with Borg CR10 leg fatigue and dyspnea scale and SpO2, at the beginning and end of the 6MWT and symptoms evaluated using a questionnaire after 4 weeks use of iNO at a dose of 30 mcg/kg IBW/hr.
In Part 2b and Part 3b change in 6MWT with Borg CR10 leg fatigue and dyspnea scale and SpO2, at the beginning and end of the 6MWT, and a symptoms questionnaire were used to assess the effects of long term pulsed iNO administered using a pulsed NO delivery device in subjects with PH associated with IPF on LTOT.
(§1) One patient from Part 2a entered into Part 2b. During Part 2b patient receive iNO utilizing NO cylinder concentration (4,880 ppm) at a dose of 75 mcg/kg IBW/hr during 4 weeks for at least 12 hours/day.
(§2) The 2 patients from Part 3a entered Part 3b. During Part 3b, patients received iNO utilizing NO cylinder concentration (4,880 ppm) at a dose of 30 mcg/kg IBW/hr.
(§3) […], the vasodilation and the hemodynamics were assessed. During the chronic phase, the focus was exercise capacity. Oxygen saturation during exercise was evaluated both at baseline as well as after 4 weeks of chronic treatment with iNO. Both the acute and chronic phases evaluated iNO doses of 30 and 75 mcg/kg IBW/hr.

PH-IPF subjects [2] = assay: Acute iNO: blood vessel volume by HRCT in PH-IPF subjects on LTOT; format: in vivo, human
Source text: This study was an exploratory, three-part, clinical study to assess the effect of pulsed iNO on functional pulmonary imaging parameters in subjects with PH-COPD on LTOT (Part 1) PH-IPF on LTOT (Part 2 and Part 3) (IK-7002-COPD-006; NCT02267655). The objective of this exploratory study was to examine the utility of high resolution computed tomography (HRCT) to measure changes in functional respiratory imaging parameters as a function of short term iNO administration using a pulsed NO delivery device in subjects with PH-IPF (Part 2 and Part 3) on LTOT. The primary endpoint in this exploratory study is the change from baseline in lobar blood volume at total lung capacity (TLC) after dosing with pulsed iNO (Part 1), iNO or Placebo (Part 2a) and after 4 weeks iNO treatment (Part 3b) as measured by HRCT.
This was an exploratory clinical study to evaluated the utility of HRCT to measure the pharmacodynamic effects of short term pulsed administration of iNO using a pulsed NO delivery device in subjects with PH-IPF (Part 2 and Part 3) on LTOT.
(§4) The 2 subjects enrolled in Part 2 were randomly assigned for Part 2a to 1 of 2 sequences to receive iNO utilizing the NO cylinder concentration (4,880 ppm) at a dose of 75 mcg/kg IBW/hr or placebo set at a dose of 75 mcg/kg IBW/hr.
(§5) The 2 subjects enrolled in Part 3a each received three different doses of iNO utilizing NO cylinder concentration (4,880 ppm) at a dose of 5 mcg/kg IBW/hr, 10 mcg/kg IBW/hr and 30 mcg/kg IBW/hr, all with LTOT. For each dose, the change in PAP pressure and the change in cardiac output was evaluated by RHC. The investigator could decide after each dose to continue with the following dose or not.
as §3

PH-IPF subjects [3] = assay: Chronic iNO: TAPSE (RV function) in PH-IPF subjects; format: in vivo, human
Source text: (§6) One or more embodiments of the present invention also relate to maintaining and/or improving right ventricular (RV) function using long-term iNO therapy. Maintenance and/or improvements in RV function can be assessed by many echocardiographic measurements. One such quantitative approach to assess RV function is the measurement of the tricuspid annular plane systolic excursion (TAPSE). The TAPSE estimates RV systolic function by measuring the level of systolic excursion of the lateral tricuspid valve annulus towards the apex. An excellent correlation between the TAPSE and RV ejection fraction as assessed by radionuclide angiography has previously been established and the approach appears reproducible and proven to be a strong predictor of prognosis in heart failure. [Reference: Heart. 2006 April; 92(Suppl 1): i19-i26.]
as §1, §2
Subject 1 received pulsed iNO at a dose of 75 mcg/kg IBW/hr for 4 weeks, and Subject 3 received pulsed iNO at a dose of 30 mcg/kg IBW/hr for 4 weeks.

[4] = tested on: pulmonary arterial hypertension (PAH); settings: cited from earlier work
PH-COPD subjects [5] = assay: Acute iNO: blood vessel volume by HRCT in PH-COPD subjects; format: in vivo, human; settings: acute assessment
Source text: (§7) This study is an open label Phase 1 study of iNO therapy in subjects with PH-COPD (PULSE-COPD-007; NCT03135860). The primary outcome of this study is the change in lobar blood volume at total lung capacity with iNO and the change in lobar blood volume with iNO after 4 weeks of treatment with iNO as measured by HRCT.
(§8) Subjects also had sPAP≥38 mm Hg as measured by echocardiogram, a post-bronchodilatory FEV1/FVC<0.7 and a FEV1<60% predicted. All subjects were at least 40 years old and were current or former smokers with at least 10 pack-years of tobacco cigarette smoking before study entry. All subjects also had been receiving LTOT for at least 3 months for at least 10 hours per day.
(§9) A further analysis was performed of seven PH-COPD subjects that completed 4 weeks of treatment with iNO at a dose of 30 mcg/kg IBW/hr. The 6MWD and sPAP results are also presented in FIGS. 10 and 11, respectively.

PH-IPF subjects [6] = assay: Acute iNO: sPAP in PH-IPF subjects; format: in vivo, human
Source text: In Part 2 of the study the subjects needed to have severe PH, therefore PH in Part 2 was defined as sPAP≥50 mm Hg by 2-D echocardiogram. In Part 3 PH was defined as sPAP≥35 mm Hg by echocardiogram (Part 3).
as §4, §5, §3

PH-COPD subjects [7] = assay: Chronic iNO: sPAP by echocardiogram in PH-COPD subjects; format: in vivo, human; settings: group value, FIG. 11
Source text: as §7, §8
(§10) The PH-COPD subjects received pulsed iNO therapy for 4 weeks for at least 12 hours/day. The iNO was administered utilizing a 4,880 ppm NO cylinder concentration.
as §9
As shown in FIG. 10, the change in 6MWD after 2 weeks of iNO therapy is +53.9 meters (p=0.02). Similarly, the change in 6MWD after 4 weeks of iNO therapy is +50.7 meters (p=0.04). In the literature, 27-54 meter improvements in 6MWD are considered clinically significant as measured by patient perceptions of improvement.

PH-COPD subjects [8] = assay: Chronic iNO: TAPSE in PH-COPD subjects; format: in vivo, human
Source text: as §6, §7, §8, §10
These subjects were diagnosed with PH-COPD and received 4 weeks of treatment with iNO at a dose of 30 mcg/kg IBW/hr. The results verify the increase in TAPSE which correlates to RV function.

PH-IPF subjects [9] = assay: Safety of iNO dose in PH-IPF subjects (PAP, RHC-monitored titration); format: in vivo, human
Experimental: The safety endpoints in this study were: • 1. Incidence and severity of treatment emergent adverse events (AEs), including those related to device deficiency; • 2. Incidence of MetHb levels >7.0%; • 3. New symptoms that may be due to rebound PH associated with a temporal acute withdrawal of investigational study drug (i.e., symptoms occurring within 20 minutes of acute withdrawal and including those associated with investigational medical device malfunction or failure): systemic arterial oxygen desaturation, hypoxemia, bradycardia, tachycardia, systemic hypotension, near-syncope, syncope, ventricular fibrillation, and/or cardiac arrest; • 4. New or worsening symptoms of left heart failure or pulmonary edema; and • 5. Any decrease in systemic oxygenation measured by oxygen saturation of arterial blood by pulse oximetry (SpO2), i.e., hypoxia or oxygen saturation decrease, deemed by the Investigator to be clinically significant.
The initial protocol intended that 4 subjects would be enrolled in Part 2. […] It was decided to temporarily stop recruitment. One of the 2 subjects completed 4 weeks of chronic use in Part 2b.
In the amendment a total of 2 subjects participated in Part 3. The dose in Part 3 was lower than in Part 2 and each subject was titrated to the optimum dose as determined by the investigator. […] The dose was monitored with a RHC in place. […]

PH-COPD subjects [10] = assay: Chronic iNO: six-minute walk distance (6MWD) in PH-COPD subjects; format: in vivo, human; settings: seven PH-COPD subjects, group value, iNO 30 mcg/kg/IBW, FIG. 10
Source text: Oxygen saturation can be measured before, during or after tests that assess exercise capacity. One approach to assess exercise capacity is the six-minute walk test, which provides the 6MWD. Other measurements that can be used to assess exercise capacity include, but are not limited to, shuttle walk test, activity level, forced exercise, maximal exercise test, treadmill, bicycle and cardiopulmonary exercise test.
as §7, §8, §10
A further analysis was performed of seven PH-COPD subjects that completed 4 weeks of treatment with iNO at a dose of 30 mcg/kg IBW/hr. […]

[11] = iNO 30 mcg/kg IBW/hr, PH-IPF Patients 3 and 4
[12] = Average of PH-IPF Subjects 1 (75) and 3 (30 mcg/kg IBW/hr), 4 weeks
[13] = PH-IPF Subject 1, pulsed iNO 75 mcg/kg IBW/hr for 4 weeks
[14] = PH-IPF Subject 3, pulsed iNO 30 mcg/kg IBW/hr for 4 weeks
[15] = Average of four PH-COPD subjects, iNO 30 mcg/kg IBW/hr for 4 weeks

Compound: [N]=O [iNO, nitric oxide]
- SpO2 Nadir (PH-IPF subjects [1]; 4 Weeks iNO 30 mcg/kg IBW/hr, Patient 3, baseline 83): 89
- SpO2 Average (PH-IPF subjects [1]; 4 Weeks iNO 30 mcg/kg IBW/hr, Patient 3, baseline 88.9): 95.7
- SpO2 Nadir (PH-IPF subjects [1]; 4 Weeks iNO 75 mcg/kg IBW/hr, Patient 1, baseline 76): 79
- SpO2 Average (PH-IPF subjects [1]; 4 Weeks iNO 75 mcg/kg IBW/hr, Patient 1, baseline 89.4): 86.6
- Acute change in blood vessel volume (%) (PH-IPF subjects [2]; [11]): 2.8 ± 3.0% and 10.1 ± 3.4%
- regional vasodilation in the lungs (targeting) (PH-IPF subjects [2]; iNO 30 mcg/kg IBW/hr, Patients 3 & 4, FIGS. 7 and 8): clear targeting of the drug
- overall vasodilation (PH-IPF subjects [2]; iNO 30 mcg/kg IBW/hr, range over Patients 3 & 4): 2.8-10.1%
- regional vasodilation in the lungs (targeting) (PH-IPF subjects [2]; iNO 75 mcg/kg IBW/hr, Patients 1 & 2, FIGS. 5 and 6): little to no targeted vasodilation
- overall vasodilation (PH-IPF subjects [2]; iNO 75 mcg/kg IBW/hr, range over Patients 1 & 2): 14.2-34.2%
- TAPSE % Change, Average (PH-IPF subjects [3]; [12]): 15%
- TAPSE Increase, Average (PH-IPF subjects [3]; [12]): 3
- TAPSE 4 Week, Average (PH-IPF subjects [3]; Average of PH-IPF Subjects 1 (75) and 3 (30 mcg/kg IBW/hr), 4 weeks, baseline 20): 23
- TAPSE % Change (PH-IPF subjects [3]; [13]): 21%
- TAPSE Increase (PH-IPF subjects [3]; [13]): 3
- TAPSE 4 Week (PH-IPF subjects [3]; PH-IPF Subject 1, pulsed iNO 75 mcg/kg IBW/hr for 4 weeks, baseline 14): 17
- TAPSE % Change (PH-IPF subjects [3]; [14]): 12%
- TAPSE Increase (PH-IPF subjects [3]; [14]): 4
- TAPSE 4 Week (PH-IPF subjects [3]; PH-IPF Subject 3, pulsed iNO 30 mcg/kg IBW/hr for 4 weeks, baseline 25): 28
- efficacy for the treatment of PAH ([4]; iNO dose 25 mcg/kg IBW/hr, same previous clinical study): inefficacious
- efficacy for the treatment of PAH ([4]; iNO dose 75 mcg/kg IBW/hr, previous clinical study): effective
- ventilation-vasodilation correlation (PH-COPD subjects [5]; PH-COPD subjects, p=0.03, FIG. 9): significant
- increase in blood vessel volume on iNO (average) (PH-COPD subjects [5]; nine PH-COPD subjects, statistically significant): 4.2%
- Acute Change in sPAP (%) (PH-IPF subjects [6]; [11]): −14.3% and −23.3%
- Acute Change in sPAP (%) (PH-IPF subjects [6]; iNO 75 mcg/kg IBW/hr, PH-IPF Patients 1 and 2): −9.3% and −9.7%
- sPAP 4 weeks after iNO therapy was discontinued (PH-COPD subjects [7]; PH-COPD subjects): 58.0 mm Hg
- sPAP after 4 weeks of iNO therapy (PH-COPD subjects [7]; seven PH-COPD subjects, iNO 30 mcg/kg IBW/hr, baseline 60.3 mm Hg, p=0.02): 48.3 mm Hg
- TAPSE % Change, Average (PH-COPD subjects [8]; [15]): 25%
- TAPSE Increase, Average (PH-COPD subjects [8]; [15]): 4
- TAPSE 4 Week, Average (PH-COPD subjects [8]; Average of four PH-COPD subjects, iNO 30 mcg/kg IBW/hr for 4 weeks, baseline 16): 20
- TAPSE after iNO therapy was discontinued (PH-COPD subjects [8]; PH-COPD subjects, N=5, FIG. 12): 19.0
- TAPSE after chronic iNO therapy (PH-COPD subjects [8]; PH-COPD subjects, N=7, baseline 18.8 (N=6), FIG. 12): 21.3
- PAP after discontinuation of iNO (PH-IPF subjects [9]; iNO 75 mcg/kg IBW/hr, the two IPF patients of Part 2): sudden increase in PAP after discontinuation
- dose titration monitored with RHC (PH-IPF subjects [9]; iNO titrated to 30 mcg/kg IBW/hr, 2 subjects of Part 3): safely
- change in 6MWD after 2 weeks of iNO therapy (PH-COPD subjects [10]; p=0.02): +53.9 meters
- change in 6MWD after 4 weeks of iNO therapy (PH-COPD subjects [10]; p=0.04): +50.7 meters
